For this assay, the target named is T1, TGF-beta receptor type-1 (Homo sapiens, UniProt P36897).
T1 sequence (P36897 whole entry): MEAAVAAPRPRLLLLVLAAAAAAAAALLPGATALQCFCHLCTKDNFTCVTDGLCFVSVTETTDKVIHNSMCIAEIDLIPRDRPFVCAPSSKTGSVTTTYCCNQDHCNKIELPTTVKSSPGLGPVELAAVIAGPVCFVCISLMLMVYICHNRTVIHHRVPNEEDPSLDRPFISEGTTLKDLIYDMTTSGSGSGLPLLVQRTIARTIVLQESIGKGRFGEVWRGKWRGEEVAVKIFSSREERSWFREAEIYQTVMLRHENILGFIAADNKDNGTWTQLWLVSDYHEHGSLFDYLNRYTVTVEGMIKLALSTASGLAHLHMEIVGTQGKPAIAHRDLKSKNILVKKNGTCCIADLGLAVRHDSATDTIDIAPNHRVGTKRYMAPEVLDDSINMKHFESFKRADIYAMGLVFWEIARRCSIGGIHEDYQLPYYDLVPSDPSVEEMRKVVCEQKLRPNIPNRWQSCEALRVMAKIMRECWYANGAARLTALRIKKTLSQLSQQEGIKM
Briefly: Kinase Activity Assay. The method, then: The principle of the activity assay was that TGFβR1 phosphorylates the substrate TGFβR1tide, consuming ATP in the process. […] The specific experimental steps were as follows. Compounds were diluted 4-fold in DMSO in a dilution plate, with the final starting concentration of the compounds being 10 μM, across 10 concentration gradient points. The compounds were then further diluted 50-fold into the kinase reaction buffer and incubated on a shaker for 20 minutes. Kinase was formulated with an enzyme reaction buffer. 2 μl kinase was added to each well of the reaction plate. 1 μl of the compound diluted in buffer was added to each well, and then the plate was sealed with a sealing membrane and centrifuged at 1000 g for 30 seconds, leaving it at room temperature for 10 minutes. Solutions of TGFβR1tide and ATP were prepared with the kinase reaction buffer, and 2 μL of the TGFβR1tide/ATP solution was added to the reaction plate. The plate was sealed with a sealing film and centrifuged at 1000 g for 30 seconds. It was allowed to react at room temperature for 60 minutes. Subsequently, 4 μL of ADP-Glo was transferred to a 384-well reaction plate and centrifuged at 1000 rpm/min for 1 minute, followed by incubation at 25° C. for 40 minutes. Then, 8 μL of Detection solution was transferred to the 384-well reaction plate and centrifuged at 1000 rpm/min for 1 minute, after which it was incubated at 25° C. for 40 minutes. The RLU (Relative Luminescence Unit) signal was read using a BMG microplate reader, which was used to characterize the degree of kinase activity.
In turn, `Cc1cccc(-c2nc[nH]c2-c2ccnc(-c3nc4c([nH]3)CN(C(=O)N3CCCC3)C4)c2)n1` [US20250179094, Compound 6] gave an IC50 of 22 nM.

With `Cc1cccc(-c2nc[nH]c2-c2ccnc(-c3nc4c([nH]3)CN(C(=O)N3CCN(C)CC3)C4)c2)n1` [US20250179094, Compound 7], inhibition was half-maximal at 1.1 nM (IC50).

Take `Cc1cccc(-c2nc3n(c2-c2ccnc(-c4nc5c([nH]4)CN(C(=O)N4CC[C@@H](O)C4)C5)c2)CCC3)n1` [US20250179094, Compound 15]: 16 nM corresponded to half-maximal inhibition (IC50).

Regarding `Cc1cccc(-c2nn(C(C)C)cc2-c2ccnc(-c3nc4c([nH]3)CN(C(=O)N3CCN(C)CC3)C4)c2)n1` [US20250179094, Compound 22], inhibition was half-maximal at 7.5 nM (IC50).

Turning to `Cc1cccc(-c2nn(Cc3ccccc3)cc2-c2ccnc(-c3nc4c([nH]3)CN(C(=O)N3CCN(C)CC3)C4)c2)n1` [US20250179094, Compound 23], 0.9 nM corresponded to half-maximal inhibition (IC50).

`Cc1cccc(-c2nc3n(c2-c2ccnc(-c4nc5c([nH]4)CN(C(=O)N4CCC(O)CC4)C5)c2)CCC3)n1` [US20250179094, Compound 27] yielded a concentration for half-maximal inhibition (IC50) of 4.3 nM.

Compound `Cc1cccc(-c2nc3n(c2-c2ccnc(-c4nc5c([nH]4)CN(C(=O)N4CCOCC4)C5)c2)CCC3)n1` [US20250179094, Compound 33] registered an IC50 of 1.7 nM.

As to `Cc1cccc(-c2nc3n(c2-c2ccnc(-c4nc5c([nH]4)CN(C(=O)N4CC[C@@H](N(C)C)C4)C5)c2)CCC3)n1` [US20250179094, Compound 34], the IC50 came out at 1.9 nM.

Take `Cc1cccc(-c2nn(C)cc2-c2ccnc(-c3nc4c([nH]3)CN(C(=O)N3CCN(C)CC3)C4)c2)n1` [US20250179094, Compound 37]: it took 6.5 nM to reach half-maximal inhibition (IC50).

Take `CCn1cc(-c2ccnc(-c3nc4c([nH]3)CN(C(=O)N3CCN(C)CC3)C4)c2)c(-c2cccc(C)n2)n1` [US20250179094, Compound 38]: the midpoint of inhibition, the IC50, lay at 4.4 nM.

The compound `Cc1cccc(-c2nn(Cc3cccc(F)c3)cc2-c2ccnc(-c3nc4c([nH]3)CN(C(=O)N3CCN(C)CC3)C4)c2)n1` [US20250179094, Compound 40] yielded an IC50 of 1.6 nM.

As for `Cc1cccc(-c2nn(CC3CC3)cc2-c2ccnc(-c3nc4c([nH]3)CN(C(=O)N3CCN(C)CC3)C4)c2)n1` [US20250179094, Compound 43], the IC50 worked out at 2.7 nM.

Compound `Cc1cccc(-c2nn(Cc3ccccc3)cc2-c2ccnc(-c3nc4c([nH]3)CN(C(=O)C3CC(O)C3)C4)c2)n1` (centres undefined) [US20250179094, Compound 56] displayed an IC50 of 23 nM.

In turn, `Cc1cccc(-c2nn(Cc3cccc(F)c3)cc2-c2ccnc(-c3nc4c([nH]3)CN(C(=O)C3CC(O)C3)C4)c2)n1` (centres undefined) [US20250179094, Compound 57] had an IC50 of 9.9 nM.

In turn, `Cc1cccc(-c2nc3n(c2-c2ccnc(-c4nc5c([nH]4)CN(C(=O)N4CCN(C)CC4)C5)c2)CCOC3)n1` [US20250179094, Compound 61] came in with an IC50 of 6.9 nM.

In turn, `Cc1cccc(-c2nn3c(c2-c2ccnc(-c4nc5c([nH]4)CN(C(=O)N4CCN(C)CC4)C5)c2)CCC3)n1` [US20250179094, Compound 62] showed an IC50 of 0.9 nM.

On to `Cc1cccc(-c2nn3c(c2-c2ccnc(-c4nc5c([nH]4)CN(C(=O)N4CCC(O)CC4)C5)c2)CCC3)n1` [US20250179094, Compound 70], for which inhibition was half-maximal at 2.3 nM (IC50).

For the compound `Cc1cccc(-c2nn3c(c2-c2ccnc(-c4nc5c([nH]4)CN(C(=O)N4CCOCC4)C5)c2)CCC3)n1` [US20250179094, Compound 71], half-maximal inhibition (IC50) required 0.67 nM.

The compound `Cc1cccc(-c2nn3c(c2-c2ccnc(-c4nc5c([nH]4)CN(C(=O)N4CCCC4)C5)c2)CCC3)n1` [US20250179094, Compound 72] gave an IC50 of 2 nM.

Broadly, the IC50 is the point on the concentration scale where inhibition reaches its midpoint.

(Values after BindingDB's records for patent US20250179094 (Medinno Pharmaceutical Technology (Zhuhai) Co., 2025).)
